Here are results for one molecule from patent US6541045B1, “Herbal composition and method for combating inflammation” (Nutraceutical Corporation, priority 2002, dated 2003).

The target of the assay is COX-1 (Homo sapiens, UniProt P23219). Briefly: COX-1 inhibition, resveratrol versus Japanese knotweed. The class given is biochemical. The note with it: pure resveratrol (99%) compared with Japanese knotweed.
Sequence of COX-1 (P23219 24-599): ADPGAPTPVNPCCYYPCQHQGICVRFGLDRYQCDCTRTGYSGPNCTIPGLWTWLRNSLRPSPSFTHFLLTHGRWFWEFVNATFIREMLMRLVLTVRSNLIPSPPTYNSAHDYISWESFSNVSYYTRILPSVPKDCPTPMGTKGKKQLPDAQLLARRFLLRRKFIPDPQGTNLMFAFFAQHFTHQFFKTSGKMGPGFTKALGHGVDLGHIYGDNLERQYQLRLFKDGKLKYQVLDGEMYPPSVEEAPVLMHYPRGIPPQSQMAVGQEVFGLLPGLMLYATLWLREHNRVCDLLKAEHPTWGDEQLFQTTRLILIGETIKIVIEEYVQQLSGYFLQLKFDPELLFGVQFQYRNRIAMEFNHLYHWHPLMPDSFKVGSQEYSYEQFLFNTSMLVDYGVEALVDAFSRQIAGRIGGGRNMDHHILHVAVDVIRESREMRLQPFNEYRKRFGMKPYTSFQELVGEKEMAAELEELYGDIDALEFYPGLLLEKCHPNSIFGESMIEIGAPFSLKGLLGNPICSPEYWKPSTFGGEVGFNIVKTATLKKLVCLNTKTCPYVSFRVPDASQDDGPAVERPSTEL

Regarding `Oc1ccc(C=Cc2cc(O)cc(O)c2)cc1` [resveratrol], the “effectiveness for COX-1” value is “just as effective”.
